Assays:
TBK1 = target: T1, TBK1 (Homo sapiens, UniProt Q9UHD2); assay: TBK biochemical assay; conditions: 10 point 1:4 dose response, 30 uM top concentration, 90 min at 25° C., LabChip EZ Reader II; read-out: TBK1_IC50
T1 sequence (Q9UHD2 1-729): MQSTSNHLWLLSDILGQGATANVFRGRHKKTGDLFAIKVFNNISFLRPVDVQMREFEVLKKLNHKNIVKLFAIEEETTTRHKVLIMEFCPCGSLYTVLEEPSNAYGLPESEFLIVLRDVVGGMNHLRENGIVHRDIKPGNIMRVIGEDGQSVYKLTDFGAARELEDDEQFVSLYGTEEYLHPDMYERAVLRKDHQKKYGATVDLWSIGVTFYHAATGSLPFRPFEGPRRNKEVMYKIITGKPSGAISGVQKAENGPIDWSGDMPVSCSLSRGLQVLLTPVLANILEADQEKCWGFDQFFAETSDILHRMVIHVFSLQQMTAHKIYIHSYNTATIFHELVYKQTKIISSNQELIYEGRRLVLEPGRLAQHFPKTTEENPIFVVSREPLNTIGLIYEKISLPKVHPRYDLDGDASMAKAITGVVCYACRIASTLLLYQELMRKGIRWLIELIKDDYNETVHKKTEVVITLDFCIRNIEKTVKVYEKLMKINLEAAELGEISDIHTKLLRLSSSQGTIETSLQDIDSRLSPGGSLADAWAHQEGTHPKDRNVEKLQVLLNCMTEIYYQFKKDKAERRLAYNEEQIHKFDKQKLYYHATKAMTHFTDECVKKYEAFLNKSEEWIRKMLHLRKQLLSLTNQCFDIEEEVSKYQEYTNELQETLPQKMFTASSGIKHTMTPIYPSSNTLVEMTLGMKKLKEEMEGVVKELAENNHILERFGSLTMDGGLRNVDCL
In short: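 Read-out was a Caliper LabChip mobility-shift assay, run after a 90-min, 25 °C reaction of TBK1 with substrate and compounds, quenched with stop buffer. Control wells received staurosporine at 10 uM final.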

IKKε = target: T2, IKKε (Homo sapiens, UniProt Q14164); assay: IKKε biochemical assay; conditions: 10 point 1:4 dose response, 30 uM top concentration, 90 min at 25° C., LabChip EZ Reader II; read-out: IKKε_IC50
T2 sequence (Q14164 1-716): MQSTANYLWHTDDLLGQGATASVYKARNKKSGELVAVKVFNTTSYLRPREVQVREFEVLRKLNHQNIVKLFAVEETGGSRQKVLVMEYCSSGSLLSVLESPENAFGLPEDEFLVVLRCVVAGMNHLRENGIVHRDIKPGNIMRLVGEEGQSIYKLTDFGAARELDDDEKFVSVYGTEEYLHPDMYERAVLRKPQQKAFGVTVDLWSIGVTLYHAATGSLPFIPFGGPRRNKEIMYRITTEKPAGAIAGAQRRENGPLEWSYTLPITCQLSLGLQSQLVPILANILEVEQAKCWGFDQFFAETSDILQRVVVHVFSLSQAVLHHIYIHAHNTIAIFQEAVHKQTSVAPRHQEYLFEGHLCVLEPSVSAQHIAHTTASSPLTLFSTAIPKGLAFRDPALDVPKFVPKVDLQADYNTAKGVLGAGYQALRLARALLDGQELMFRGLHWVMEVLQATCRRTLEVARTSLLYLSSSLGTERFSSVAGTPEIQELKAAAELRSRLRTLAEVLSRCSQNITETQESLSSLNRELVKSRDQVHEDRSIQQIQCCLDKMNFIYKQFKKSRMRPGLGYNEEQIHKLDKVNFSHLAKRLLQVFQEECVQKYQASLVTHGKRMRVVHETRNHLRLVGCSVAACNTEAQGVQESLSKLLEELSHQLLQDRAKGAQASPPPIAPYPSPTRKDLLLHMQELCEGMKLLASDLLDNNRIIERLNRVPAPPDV
In short: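 Mobility-shift LabChip read-out followed a 90 min, 25° C. reaction of IKKε with substrate and test compound, with DMSO held at 1% final. Reactions were ended with stop buffer. Wells with 10 uM final staurosporine defined complete inhibition, and DMSO-only wells the uninhibited level.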

Row | SMILES | IC50 (TBK1) | IC50 (IKKε)
1 | C[C@H](O)C(=O)N1CCC(Oc2ccc(-c3ccnc(Nc4cccnc4)n3)cc2C#N)C(F)(F)C1 (stereo partly shown) [Example 205] | < 100 nM | < 100 nM
2 | C[C@@H](O)C(=O)N1CCC(Oc2ccc(-c3ccnc(Nc4cccnc4)n3)cc2C#N)C(F)(F)C1 (stereo partly drawn) [Example 206, 2-([33-difluoro-1-[(2R)-2-hydroxypropanoyl]piperidin-4-yl]oxy)-5-[2-[(pyridin-3-yl)amino]pyrimidin-4-yl]benzonitrile] | < 100 nM | < 100 nM
3 | C[C@H](O)C(=O)N1CCC(Oc2ccc(-c3ccnc(Nc4ccncc4)n3)cc2C#N)C(F)(F)C1 (stereo partly drawn) [Example 207, 2-([3,3-difluoro-1-[(2S)-2-hydroxypropanoyl]piperidin-4-yl]oxy)-5-[2-[(pyridin-4-yl)amino]pyrimidin-4-yl]benzonitrile] | < 100 nM | < 100 nM
4 | C[C@@H](O)C(=O)N1CCC(Oc2ccc(-c3ccnc(Nc4ccncc4)n3)cc2C#N)C(F)(F)C1 (stereo partly drawn) [Example 208, 2-([3,3-difluoro-1-[(2R)-2-hydroxypropanoyl]piperidin-4-yl]oxy)-5-[2-[(pyridin-4-yl)amino]pyrimidin-4-yl]benzonitrile] | < 100 nM | < 100 nM
5 | C[C@H](O)C(=O)N1CCC(Oc2ccc(-c3ccnc(Nc4ccccc4)n3)cc2C#N)C(F)(F)C1 (stereo partly drawn) [Example 209, 2-[3,3-Difluoro-1-((S)-2-hydroxy-propionyl)-piperidin-4-yloxy]-5-(2-phenylamino-pyrimidin-4-yl)-benzonitrile] | < 100 nM | < 100 nM

More lines, now with the values ahead:

Row | IC50 (TBK1) | IC50 (IKKε) | SMILES
6 | < 100 nM | < 100 nM | COc1nc(Nc2nccc(-c3ccc(O[C@H]4CCN(C(=O)[C@@H](O)CO)C[C@@H]4F)c(C#N)c3)n2)ccc1N1CCN(C2COC2)CC1 [Example 197, 2-[(3S,4S)-1-((S)-2,3-Dihydroxy-propionyl)-3-fluoro-piperidin-4-yloxy]-5-{2 [6-methoxy-5-(4-oxetan-3-yl-piperazin-1-yl)-pyridin-2-ylamino]-pyrimidin-4-yl}-benzonitrile]
7 | < 100 nM | < 100 nM | COc1nc(Nc2nccc(-c3ccc(O[C@H]4CCNC[C@H]4F)c(C#N)c3)n2)ccc1N1CCN(C2COC2)CC1 [Example 198, 2-[[(3R,4S)-3-fluoropiperidin-4-yl]oxy]-5-[2-([6-methoxy-5-[4-(oxetan-3-yl)piperazin-1-yl]pyridin-2-yl]amino)pyrimidin-4-yl]benzonitrile]
8 | < 100 nM | < 100 nM | COc1nc(Nc2nccc(-c3ccc(O[C@H]4CCN(C(=O)[C@H](C)O)C[C@H]4F)c(C#N)c3)n2)ccc1N1CCN(C2COC2)CC1 [Example 199, 2-[[(3R,4S)-3-fluoro-1-[(2S)-2-hydroxypropanoyl]piperidin-4-yl]oxy]-5-[2-([6-methoxy-5-[4-(oxetan-3-yl)piperazin-1-yl]pyridin-2-yl]amino)pyrimidin-4-yl]benzonitrile]
9 | < 100 nM | < 100 nM | COc1nc(Nc2nccc(-c3ccc(O[C@H]4CCN(C(=O)[C@H](C)O)C[C@H]4F)c(C#N)c3)n2)ccc1N1CCN(C)CC1 [Example 201, 2-[[(3R,4S)-3-fluoro-1-[(2S)-2-hydroxypropanoyl]piperidin-4-yl]oxy]-5-(2-[[6-methoxy-5-(4-methylpiperazin-1-yl)pyridin-2-yl]amino]pyrimidin-4-yl)benzonitrile]
10 | < 100 nM | < 100 nM | COc1nc(Nc2nccc(-c3ccc(O[C@@H]4CCN(C(=O)[C@H](C)O)C[C@H]4F)c(C#N)c3)n2)ccc1N1CCN(C2COC2)CC1 [Example 202, 2-[(3R,4R)-3-Fluoro-1-((S)-2-hydroxy-propionyl)-piperidin-4-yloxy]-5-{2-[6-methoxy-5-(4-oxetan-3-yl-piperazin-1-yl)-pyridin-2-ylamino]-pyrimidin-4-yl}-benzonitrile]
11 | < 100 nM | < 100 nM | Cc1nc(C(=O)N2CCC(Oc3ccc(-c4ccnc(Nc5ccc(N6CCN(C)CC6)cc5)n4)cc3C#N)CC2)n[nH]1 [Example 203, 2-[[1-(5-methyl-1H-1,2,4-triazole-3-carbonyl)piperidin-4-yl]oxy]-5-(2-[[4-(4-methylpiperazin-1-yl)phenyl]amino]pyrimidin-4-yl)benzonitrile]
